Laboratory results reported in ChEMBL document CHEMBL3112479, “Synthesis and evaluation of the antimicrobial activities of 3-((5-phenyl-1,3,4-oxadiazol-2-yl)methyl)-2-thioxothiazolidin-4-one derivatives” (2014).
Values after ≈ are worked out from the molar mass of the structure shown.

Tests used:
Salmonella typhimurium [1] = test: Antimicrobial activity against Salmonella typhimurium 1926 after 20 hrs by two-fold serial dilution technique; format: functional, Salmonella enterica subsp. enterica serovar Typhimurium; conditions: Salmonella enterica, 1926, 20 h
Staphylococcus aureus [2] = test: Antimicrobial activity against methicillin-resistant Staphylococcus aureus clinical isolate 3167 after 20 hrs by two-fold serial dilution technique; format: functional; conditions: isolate 3167, 20 h
Salmonella typhimurium [3] = test: Antimicrobial activity against Salmonella typhimurium 2421 after 20 hrs by two-fold serial dilution technique; format: functional, Salmonella enterica subsp. enterica serovar Typhimurium; conditions: Salmonella enterica, 2421, 20 h
Staphylococcus aureus [4] = test: Antimicrobial activity against quinolone-resistant Staphylococcus aureus clinical isolate 3505 after 20 hrs by two-fold serial dilution technique; format: functional; conditions: isolate 3505, 20 h
Pseudomonas aeruginosa [5] = test: Antimicrobial activity against Pseudomonas aeruginosa 2742 after 20 hrs by two-fold serial dilution technique; format: functional; conditions: Pseudomonas aeruginosa, 2742, 20 h
Staphylococcus aureus [6] = test: Antimicrobial activity against methicillin-resistant Staphylococcus aureus clinical isolate 3506 after 20 hrs by two-fold serial dilution technique; format: functional; conditions: isolate 3506, 20 h
Candida albicans = test: Antimicrobial activity against Candida albicans 7535 after 20 hrs by two-fold serial dilution technique; format: functional; conditions: Candida albicans, 7535, 20 h
Escherichia coli [7] = test: Antimicrobial activity against Escherichia coli KCTC 1924 after 20 hrs by two-fold serial dilution technique; format: functional; conditions: KCTC 1924, 20 h
Pseudomonas aeruginosa [8] = test: Antimicrobial activity against Pseudomonas aeruginosa 2004 after 20 hrs by two-fold serial dilution technique; format: functional; conditions: Pseudomonas aeruginosa, 2004, 20 h
Streptococcus mutans = test: Antimicrobial activity against Streptococcus mutans 3065 after 20 hrs by two-fold serial dilution technique; format: functional; conditions: Streptococcus mutans, 3065, 20 h
Staphylococcus aureus [9] = test: Antimicrobial activity against quinolone-resistant Staphylococcus aureus clinical isolate 3519 after 20 hrs by two-fold serial dilution technique; format: functional; conditions: isolate 3519, 20 h
Staphylococcus aureus [10] = test: Antimicrobial activity against Staphylococcus aureus RN4220 after 20 hrs by two-fold serial dilution technique; format: functional; conditions: RN4220, 20 h
Staphylococcus aureus [11] = test: Antimicrobial activity against Staphylococcus aureus 503 after 20 hrs by two-fold serial dilution technique; format: functional; conditions: Staphylococcus aureus, 503, 20 h
Staphylococcus aureus [12] = test: Antimicrobial activity against Staphylococcus aureus 209 after 20 hrs by two-fold serial dilution technique; format: functional; conditions: Staphylococcus aureus, 209, 20 h
Escherichia coli [13] = test: Antimicrobial activity against Escherichia coli CCARM 1356 after 20 hrs by two-fold serial dilution technique; format: functional; conditions: CCARM 1356, 20 h

Structure (SMILES): Cc1cccc(-c2nnc(CN3C(=O)CSC3=S)o2)c1
- MIC (Salmonella typhimurium [1]): 64 µg/mL (≈ 210 µM)
- MIC (Staphylococcus aureus [2]): 32 µg/mL (≈ 105 µM)
- MIC (Salmonella typhimurium [3]): 128 µg/mL (≈ 419 µM)
- MIC (Staphylococcus aureus [4]): 32 µg/mL (≈ 105 µM)
- MIC (Pseudomonas aeruginosa [5]): > 128 µg/mL
- MIC (Staphylococcus aureus [6]): 32 µg/mL (≈ 105 µM)
- MIC (Candida albicans): 64 µg/mL (≈ 210 µM)
- MIC (Escherichia coli [7]): 16 µg/mL (≈ 52.4 µM)
- MIC (Pseudomonas aeruginosa [8]): > 128 µg/mL
- MIC (Streptococcus mutans): 8 µg/mL (≈ 26.2 µM)
- MIC (Staphylococcus aureus [9]): 32 µg/mL (≈ 105 µM)
- MIC (Staphylococcus aureus [10]): 32 µg/mL (≈ 105 µM)
- MIC (Staphylococcus aureus [11]): 32 µg/mL (≈ 105 µM)
- MIC (Staphylococcus aureus [12]): 16 µg/mL (≈ 52.4 µM)
- MIC (Escherichia coli [13]): > 128 µg/mL

Structure (SMILES): O=C1CSC(=S)N1Cc1nnc(-c2cccc(Cl)c2)o1
- MIC (Salmonella typhimurium [1]): 32 µg/mL (≈ 98.2 µM)
- MIC (Staphylococcus aureus [2]): 32 µg/mL (≈ 98.2 µM)
- MIC (Salmonella typhimurium [3]): 64 µg/mL (≈ 196 µM)
- MIC (Staphylococcus aureus [4]): 32 µg/mL (≈ 98.2 µM)
- MIC (Pseudomonas aeruginosa [5]): > 128 µg/mL
- MIC (Staphylococcus aureus [6]): 32 µg/mL (≈ 98.2 µM)
- MIC (Candida albicans): 32 µg/mL (≈ 98.2 µM)
- MIC (Escherichia coli [7]): 16 µg/mL (≈ 49.1 µM)
- MIC (Pseudomonas aeruginosa [8]): > 128 µg/mL
- MIC (Streptococcus mutans): 16 µg/mL (≈ 49.1 µM)
- MIC (Staphylococcus aureus [9]): 32 µg/mL (≈ 98.2 µM)
- MIC (Staphylococcus aureus [10]): 16 µg/mL (≈ 49.1 µM)
- MIC (Staphylococcus aureus [11]): 32 µg/mL (≈ 98.2 µM)
- MIC (Staphylococcus aureus [12]): 16 µg/mL (≈ 49.1 µM)
- MIC (Escherichia coli [13]): > 128 µg/mL

Structure (SMILES): COc1c(N2CCNC(C)C2)c(F)cc2c(=O)c(C(=O)O)cn(C3CC3)c12 (stereo not given) [GATIFLOXACIN]
- MIC (Salmonella typhimurium [1]): 2 µg/mL (≈ 5.33 µM)
- MIC (Staphylococcus aureus [2]): 2 µg/mL (≈ 5.33 µM)
- MIC (Salmonella typhimurium [3]): 0.5 µg/mL (≈ 1.33 µM)
- MIC (Staphylococcus aureus [4]): 8 µg/mL (≈ 21.3 µM)
- MIC (Pseudomonas aeruginosa [5]): 1 µg/mL (≈ 2.66 µM)
- MIC (Staphylococcus aureus [6]): 2 µg/mL (≈ 5.33 µM)
- MIC (Candida albicans): 0.5 µg/mL (≈ 1.33 µM)
- MIC (Escherichia coli [7]): 2 µg/mL (≈ 5.33 µM)
- MIC (Pseudomonas aeruginosa [8]): 1 µg/mL (≈ 2.66 µM)
- MIC (Streptococcus mutans): 0.5 µg/mL (≈ 1.33 µM)
- MIC (Staphylococcus aureus [9]): 4 µg/mL (≈ 10.7 µM)
- MIC (Staphylococcus aureus [10]): 0.25 µg/mL (≈ 0.666 µM)
- MIC (Staphylococcus aureus [11]): 4 µg/mL (≈ 10.7 µM)
- MIC (Staphylococcus aureus [12]): 2 µg/mL (≈ 5.33 µM)
- MIC (Escherichia coli [13]): 16 µg/mL (≈ 42.6 µM)
